Measured values published in patent publication US20230322854A1, “HUNTINGTIN-RELATED PEPTIDE AGENTS AND USES THEREOF” (UNIVERSITY OF SOUTHERN CALIFORNIA, priority 2020, published 2023).
“Also recorded” adds a separate entry of the source. Each block holds one molecule with its values, some of them ahead of it. No end group written: not given here. spin label = not defined here

What was measured:
[1] = system: unbundled Huntingtin fibrils (exon 1); assay: Radioactive binding assay, immobilized unbundled Huntingtin fibrils; settings: for effect on HD8 binding affinity of constant region / N-terminal mutation: versus HD8 with GSGTSGSS, HD8 MA versus HD8 MM; for effect on binding of mutating the HD1 residue to Alanine: Alanine scan of HD1; for binding to Htt-fibrils: radiolabeled mRNA-peptide fusions, fibrils immobilized on beads; for effect on binding of mutating the HD8 residue to Alanine: Alanine scan of HD8; for effect on HD1 binding of constant region / N-terminal mutation: HD 1A versus HD1 with GSGTSGSS, HD1 MA versus HD1 MM
Source text: Messenger RNA (mRNA) display (described in (Roberts, et al. (1997) Proc Natl Acad Sci USA 94: 12297-302, Takahashi, et al. (2003) Trends Biochem Sci 28: 159-65); FIG. 2) was used to engineer peptide agents that bind to unbundled fibrils of Huntingtin exon 1. To do this, unbundled Huntingtin fibrils were generated by mixing biotinylated Huntingtin protein (exon 1; FIG. 1) with non-biotinylated exon 1 Huntingtin protein at a ratio of 1:20 (˜5% biotinylated Huntingtin). These fibrils were then immobilized on Neutravidin agarose (Thermo Fisher) or Streptavidin ultralink beads (Thermo Fisher) via the attached biotin. A MX9 (where X is any of the 20 natural amino acids) mRNA display library was generated using published procedures (Takahashi, et al. (2009) Methods Mol Biol 535: 293-314) and incubated with immobilized fibrils. Non-binding sequences were washed away and the remaining fibril binding peptides were amplified via RT-PCR. This process was repeated seven times.
(§1) The binding of the peptide library was determined using a radioactive binding assay. In this assay, peptides were radiolabeled by translating the mRNA coding for these peptides in the presence of ^35S-methionine using rabbit reticulocyte lysate (Jackson, et al. (1983) Methods Enzymol 96: 50-74). These peptides were translated in an mRNA display format and were thus linked to their encoding mRNA, as described above. After purification by dT chromatography, the radiolabeled peptides were incubated with Huntingtin fibrils immobilized on Neutravidin Agarose or Streptavidin Ultralink beads. The beads were then filtered through a Spin X column (Corning) to separate the supernatant and beads, then washed to remove unbound sequences. The supernatant, washes, and beads were all counted in a scintillation counter to determine the counts in each sample. The percent bound was determined by dividing the counts on the beads with the total counts (beads+washes+supernatant).

[2] = Radioactive binding assay, beads without target (no target control); settings: radiolabeled peptide
Description: as §1

Httex1 aggregates = assay: Labeling of Httex1 aggregates in retinal sections of Huntington mouse models; settings: R6/1 (34 weeks) and zQ175KI (48 weeks) mice, 2 micromolar
Source text: FIG. 28 presents fluorescence microscopy pictures showing that HD8-Alexa488 labels aggregated Httex1 in retina sections from two different mouse model of Huntington disease. Left panels show nuclear stain that labels all cells. Right panels show signal from HD8-Alexa488. Top panels show a retinal section from a R6/1 mouse, and bottom panels show a retinal section from a zQ175KI mouse.
Left panels show nuclear stain that labels all cells (A1 and B1), and right panels show signal from HD8-SP10-HD1-fluorescein (A2 and B2). Top panels are higher magnification that show the ganglion cell layer of the retina, and the bottom panels are lower magnification micrographs that show all retinal layers. Labeling of all retinal layers is seen when the HD peptides are dimerized. The phase contrast panel to the left of the bottom panels show the corresponding retinal layers: ONL: outer nuclear layer that contain rod and cone photoreceptor cells, INL: inner nuclear layer that contains cell bodies from horizontal cells, bipolar cells, amacrine cells and Müller cells, GCL: ganglion cell layer.
To see whether HD peptides bind Httex1 aggregates formed in vivo, we used tissues from two different Huntington mouse models, R6/1 (34 weeks old) and zQ175KI (48 weeks). FIG. 28 show retinal sections from these mice incubated with 2 micromolar of HD8 conjugated with Alexa488 at its carboxyl terminus.
HD8-HD1-fluorescein (0.1 micromolar) was also used on retinal sections from 34-week-old R6/1 mice (FIG. 29). […] In addition, weaker signal from intranuclear aggregates was also observed. Further, the signal can now be detected in all layers of the retina where the nuclei reside.

[3] = target: unbundled fibrils of Huntingtin exon 1 (about 5% biotinylated), immobilized on beads (UniProt P42858); assay: alanine scan of the constant region, radioactive binding assay
[4] = target: unbundled fibrils of Huntingtin exon 1 (about 5% biotinylated), immobilized on beads (UniProt P42858); assay: EPR, spin-labeled peptide titrated onto 15 µM fibrils

Molecule: MWQMMNGMSQGS [HD 8GS]
effect on HD8 binding affinity of constant region / N-terminal mutation [1]: loss could be recovered

Molecule: HD8SP10-HD1: dimeric peptide agent of HD8 and HD1 joined by a 10 amino acid spacer (MWQMMNGMSQGSGTSGSSGSMDWWPMWPSLGSGTSGSS)
binding in the presence of urea ([1]; 1 M, 2 M or 3 M urea versus buffer only (TBST)): decreased binding that is approximately proportional to the amount of urea added

Molecule: MDWWPMWPSA [L10]
effect on binding of mutating the HD1 residue to Alanine [1]: decrease binding

Molecule: MFFVLSWTPL [HD5]
binding to beads without target [2]: high non-specific binding to beads without target

Molecule: MDWWPLWPSL (MDWWPLWPSLGSGTSGSS) [HD1 M6L]
effect on binding of Met substitution in HD1 ([1]; HD1 Met mutants versus HD1): no effect on binding

Molecule: MDWWPAWPSL [M6]
effect on binding of mutating the HD1 residue to Alanine [1]: decrease binding; also recorded: reduced but did not abolish

Molecule: HD8-Alexa488: HD8 conjugated with Alexa488 at its carboxyl terminus (MWQMMNGMSQ-Alexa488)
labeling of retinal sections (Httex1 aggregates): Specific staining was observed in the ganglion cell layer of the retina in both mouse models
labeling of retinal sections (Httex1 aggregates; listed as HD8 conjugated with Alexa488): observed mostly in the ganglion cell layer

Molecule: MWQMMNGMSQG [HD 8G]
effect on HD8 binding affinity of constant region / N-terminal mutation [1]: loss could be recovered

Molecule: HD1-SP10-HD8-SP10-HD1: trimeric peptide agent of HD1, HD8, HD1 with spacers (MDWWPMWPSLGSGTSGSSGSMWQMMNGMSQGSGTSGSSGSMDWWPMWPSL)
binding under lower fibril conditions ([1]; 0.7 μg protein (about 50 pmol as monomer)): better performing

Molecule: MWQMMNAMSQ [G7]
effect on binding of mutating the HD8 residue to Alanine [1]: modest losses

Molecule: MAWQMMNGMSQ GSGTSGSS (MAWQMMNGMSQGSGTSGSS) [HD8 MA]
effect on HD8 binding affinity of constant region / N-terminal mutation [1]: decrease in binding

Molecule: HD1 MA: HD1 with additional Met at the N-terminus, Met1 changed to Ala (MADWWPMWPSLGSGTSGSS)
effect on HD1 binding of constant region / N-terminal mutation [1]: significantly decreases binding

Molecule: MWQMMNGMSQA [HD 8A]
effect on HD8 binding affinity of constant region / N-terminal mutation [1]: modest loss in binding affinity

Molecule: HD 1A: HD1 with substitution of the GSGTSGSS constant region with Ala (MDWWPMWPSLA)
effect on HD1 binding of constant region / N-terminal mutation [1]: little effect on binding affinity

Molecule: MQMWTMWEPW (MQMWTMWEPWGSGTSGSS) [HD 6]
binding to beads without target [2]: little to no binding to beads without target
binding to Htt-fibrils [1]: good binding to Htt-fibrils

Molecule: MDWWPMWPSLGSATSGSS (also: 35S-methionine) [HD1 G13A]
percent decrease in HD1 binding [3]: 20%

Molecule: MDWWPMWPSLGAGTSGSS (also: 35S-methionine) [HD1 S12A]
percent decrease in HD1 binding [3]: 20%

B1: HD8-SP10-HD1-SP10-HD8-SP10-HD1: tetrameric HD8/HD1 molecule with spacers (peptide)
peptide: MWQMMNGMSQGSGTSGSSGSMDWWPMWPSLGSGTSGSSGSMWQMMNGMSQGSGTSGSSGSMDWWPMWPSL
binding to Htt-fibrils in the presence of serum ([1]; serum diluted 1:2, 1:5 or 1:10 with buffer (TBST)): serum can partially inhibit binding

Molecule: MWQMMNGMSQC(spin label) (reading uncertain) [spin-labeled synthetic HD8]
stoichiometry of the complex (ratio) (ratio (printed 1:1)) [4]: 1

Molecule: MDWWPMWPSLASGTSGSS (also: 35S-methionine) [HD1 G11A]
percent decrease in HD1 binding [3]: 20%

Molecule: MDWWPMWPSLC(spin label) (reading uncertain) [spin-labeled synthetic HD1]
stoichiometry of the complex (ratio at saturation) (ratio (printed 1:3)) [4]: 0.33

The next lines start with results.

effect on binding of mutating the HD1 residue to Alanine [1]: decrease binding
Molecule: MDWWPMWASL [P8]

binding to Htt-fibrils [1]: demonstrated binding to Htt-fibrils
Molecule: MWMIQMPGYQ (MWMIQMPGYQGSGTSGSS) [HD2]
binding to beads without target [2]: little to no binding to beads without target

effect on binding of mutating the HD1 residue to Alanine [1]: decrease binding
Molecule: MDAWPMWPSL [W3]

binding to Htt-fibrils [1]: demonstrated binding to Htt-fibrils
Molecule: MRWSMSYSWA (MRWSMSYSWAGSGTSGSS) [HD3]
binding to beads without target [2]: little to no binding to beads without target

effect on binding of mutating the HD1 residue to Alanine [1]: decrease binding
Molecule: MDWWAMWPSL [P5]

effect on binding of mutating the HD8 residue to Alanine [1]: large losses of binding
Molecule: MWAMMNGMSQ [Q3]

binding to Htt-fibrils [1]: demonstrated binding to Htt-fibrils
Molecule: MFMMMWMSLT (MFMMMWMSLTGSGTSGSS) [HD4]
binding to beads without target [2]: little to no binding to beads without target

effect on binding of mutating the HD8 residue to Alanine [1]: modest losses
Molecule: MWQMMNGASQ [M8]

effect on binding of mutating the HD8 residue to Alanine [1]: modest losses
Molecule: MWQMANGMSQ [M5]

binding to Htt-fibrils [1]: good binding to Htt-fibrils
Molecule: MDLWPMWESW (MDLWPMWESWGSGTSGSS) [HD7]
binding to beads without target [2]: little to no binding to beads without target

effect on binding of mutating the HD8 residue to Alanine [1]: modest losses
Molecule: MAQMMNGMSQ [W2]
